Results reported in patent US20240182531A1, “KV1.3 Blockers” (priority 2021, published 2024).
Where two headings read alike, the source gives them in different places. Where a SMILES comes first, the peptide text is derived from it. Bridges are numbered along the chain shown (N, C = ends). [ ]: non-standard residue; d: D form. Nle = CCCC[C@H](N)C(=O)O; Dab = NCC[C@H](N)C(=O)O

How the values were obtained:
[1] = biological target: T1, human Kv1.3 voltage-gated K+ channel (Homo sapiens, UniProt P22001); assay: Kv1.3 blocker activity in FLIPR thallium assay; format: cell-based
T1 construct: host or cells: CHO-DUKX
Protocol: A human Kv1.3 voltage-gated K+ channel cell line was purchased from Perkin Elmer (#TDS-AX-010-C-1). The cell line is based on CHO-DUKX cells stably transfected with the human Kv1.3 voltage-gated K+ channel.
The cell line was grown in MEMα with nucleotides, GlutaMAX (Gibco #32571028), 10% Foetal Bovine Serum (FBS), 0.4 mg/ml Geneticin, 100 units/ml Penicillin, and 100 μg/ml Streptomycin and seeded at 10.000 cells/well in black poly-D-lysine-coated 96 well plates.
The FluxOR™ Potassium Ion Channel Assay (Invitrogen #F10016) was used to quantitate flux of thallium ions into the cells as a response to Kv1.3 activation with a stimulus buffer causes depolarization of the cell membrane, thereby generating a fluorescent signal, proportional to channel activity. The assay was performed as described by the assay kit manufacturer including a compound pre-incubation step (30 min, 37° C., 5% CO2) in assay buffer containing 0.02% W/v casein from bovine milk (Sigma #C4765) prior to cell membrane depolarization using a final stimuli buffer composition corresponding to 0.2× FluxOR™ chloride-free buffer, 5 mM K2SO4, 1 mM Tl2SO4. The fluorescence responses were recorded and quantified (maximum response at 50 s, 37° C.) using the FLIPR® Tetra High Throughput Screening System (Molecular Devices, Inc.).
IC50 can be regarded as a measure of potency of inhibition for the respective compound. The IC50 value is a measure of the concentration of an inhibitor required to achieve half of that compound's maximal inhibition of ion channel activity in a given assay.

[2] = biological target: T2, human Kv1.1 (Homo sapiens, UniProt Q09470); assay: cell-based
T2 construct: expressed in transfected cells; host or cells: CHO

[3] = biological target: T3, human Kv1.2 (Homo sapiens, UniProt P16389); assay: cell-based
T3 construct: expressed in transfected cells; host or cells: CHO

[4] = biological target: T4, human Kv1.6 (Homo sapiens, UniProt P17658); assay: cell-based
T4 construct: expressed in transfected cells; host or cells: CHO

[5] = biological target: Rat whole blood (Rattus norvegicus, UniProt P15384); format: cell-based
[6] = test system: KLH ear inflammation model in rats; format: in vivo, rat
[7] = ratio of patch clamp IC50 values
[8] = IL-17A release, thapsigargin, 24 Hr, at least 2 replicates
[9] = 100 nmol/kg SC 24 hrs prior to KLH ear challenge, +/− SD

Sequence of Rat whole blood (P15384 whole entry): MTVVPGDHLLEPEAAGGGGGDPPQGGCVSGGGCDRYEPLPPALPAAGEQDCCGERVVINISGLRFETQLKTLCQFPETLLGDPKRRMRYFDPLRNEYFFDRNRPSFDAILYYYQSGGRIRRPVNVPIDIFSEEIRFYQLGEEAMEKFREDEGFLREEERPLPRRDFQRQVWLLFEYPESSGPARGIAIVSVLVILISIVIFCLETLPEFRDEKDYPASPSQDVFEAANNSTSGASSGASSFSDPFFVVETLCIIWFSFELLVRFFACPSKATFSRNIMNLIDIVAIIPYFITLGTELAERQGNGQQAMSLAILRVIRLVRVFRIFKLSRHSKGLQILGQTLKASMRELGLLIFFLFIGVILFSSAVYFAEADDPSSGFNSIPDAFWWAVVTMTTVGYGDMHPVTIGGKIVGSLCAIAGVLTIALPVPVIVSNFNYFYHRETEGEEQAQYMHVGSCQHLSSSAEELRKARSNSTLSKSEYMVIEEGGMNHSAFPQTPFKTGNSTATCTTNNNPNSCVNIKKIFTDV
T2 sequence (Q09470 whole entry): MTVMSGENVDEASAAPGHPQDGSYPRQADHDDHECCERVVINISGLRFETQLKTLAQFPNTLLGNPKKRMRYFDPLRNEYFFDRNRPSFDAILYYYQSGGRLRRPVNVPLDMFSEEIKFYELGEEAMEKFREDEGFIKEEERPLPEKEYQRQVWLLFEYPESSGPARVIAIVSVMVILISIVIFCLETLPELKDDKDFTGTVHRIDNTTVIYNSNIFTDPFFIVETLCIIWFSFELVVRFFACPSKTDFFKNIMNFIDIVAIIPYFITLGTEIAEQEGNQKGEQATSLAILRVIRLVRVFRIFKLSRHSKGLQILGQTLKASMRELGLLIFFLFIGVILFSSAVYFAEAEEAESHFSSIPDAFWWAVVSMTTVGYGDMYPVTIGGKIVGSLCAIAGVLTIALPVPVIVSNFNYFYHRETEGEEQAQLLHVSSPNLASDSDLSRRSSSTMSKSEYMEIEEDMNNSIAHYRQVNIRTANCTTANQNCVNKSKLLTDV
T4 sequence (P17658 whole entry): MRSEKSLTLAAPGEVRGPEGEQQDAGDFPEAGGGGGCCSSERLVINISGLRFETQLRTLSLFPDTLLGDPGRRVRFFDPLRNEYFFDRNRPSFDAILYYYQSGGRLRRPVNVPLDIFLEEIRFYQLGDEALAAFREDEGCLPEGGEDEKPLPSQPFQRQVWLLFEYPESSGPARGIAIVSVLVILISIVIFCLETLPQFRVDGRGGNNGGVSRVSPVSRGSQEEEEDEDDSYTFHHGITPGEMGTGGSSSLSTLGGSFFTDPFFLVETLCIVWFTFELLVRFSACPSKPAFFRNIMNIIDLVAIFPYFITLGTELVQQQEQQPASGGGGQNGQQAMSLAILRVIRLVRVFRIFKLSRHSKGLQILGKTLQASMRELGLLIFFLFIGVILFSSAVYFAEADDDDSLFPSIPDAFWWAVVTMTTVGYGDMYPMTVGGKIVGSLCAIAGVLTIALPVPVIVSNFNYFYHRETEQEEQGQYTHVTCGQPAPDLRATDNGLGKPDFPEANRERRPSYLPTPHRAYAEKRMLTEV
T3 sequence (P16389 whole entry): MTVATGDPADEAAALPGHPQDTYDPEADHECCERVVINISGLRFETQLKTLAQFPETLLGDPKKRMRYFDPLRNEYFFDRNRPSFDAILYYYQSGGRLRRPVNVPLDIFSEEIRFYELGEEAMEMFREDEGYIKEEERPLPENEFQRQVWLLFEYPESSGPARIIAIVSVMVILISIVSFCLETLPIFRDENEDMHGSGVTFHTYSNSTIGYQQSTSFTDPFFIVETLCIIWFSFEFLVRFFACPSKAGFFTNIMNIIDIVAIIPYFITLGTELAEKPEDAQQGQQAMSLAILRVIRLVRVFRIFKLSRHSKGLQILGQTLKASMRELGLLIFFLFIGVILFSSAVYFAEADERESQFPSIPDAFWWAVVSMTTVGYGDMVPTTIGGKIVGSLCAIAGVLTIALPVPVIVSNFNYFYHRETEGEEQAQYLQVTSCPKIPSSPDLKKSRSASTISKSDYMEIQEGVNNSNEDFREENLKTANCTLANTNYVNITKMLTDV
T1 sequence (P22001 whole entry): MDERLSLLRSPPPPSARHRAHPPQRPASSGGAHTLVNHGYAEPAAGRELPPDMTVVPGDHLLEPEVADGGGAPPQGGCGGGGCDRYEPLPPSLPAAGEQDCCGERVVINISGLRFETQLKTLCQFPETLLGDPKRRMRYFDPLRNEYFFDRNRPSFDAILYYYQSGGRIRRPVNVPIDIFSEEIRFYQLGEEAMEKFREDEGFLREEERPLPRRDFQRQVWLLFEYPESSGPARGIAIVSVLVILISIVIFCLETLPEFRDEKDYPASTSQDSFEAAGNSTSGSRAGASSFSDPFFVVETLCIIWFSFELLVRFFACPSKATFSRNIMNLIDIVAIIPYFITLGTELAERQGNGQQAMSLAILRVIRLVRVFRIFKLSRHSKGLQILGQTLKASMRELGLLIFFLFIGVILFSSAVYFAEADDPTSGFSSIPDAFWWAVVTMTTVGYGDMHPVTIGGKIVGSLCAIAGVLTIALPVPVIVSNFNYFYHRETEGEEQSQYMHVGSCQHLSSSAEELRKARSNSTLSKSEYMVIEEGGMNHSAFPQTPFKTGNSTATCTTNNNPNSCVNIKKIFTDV

Row | Structure (SMILES) | IC50 [1] [nM] | Selectivity ratio Kv1.1/Kv1.3 [2, 7] | Selectivity ratio Kv1.2/Kv1.3 [3, 7] | Selectivity ratio Kv1.6/Kv1.3 [4, 7] | IC50 [5, 8] [nM] | % inhibition of ear thickness (AUC of Δ ear thickness 0-48 hours) [6, 9] | further results
1 | CCCC[C@H](NC(=O)[C@@H]1CCCN1)C(=O)N[C@@H](CCC(=O)O)C(=O)N[C@@H](CCCC)C(=O)N[C@@H](CCCNC(=N)N)C(=O)N[C@H]1CSSC[C@@H]2NC(=O)[C@H](CCCCN)NC(=O)CNC(=O)[C@H](Cc3ccccc3)NC(=O)[C@H]([C@@H](C)CC)NC(=O)[C@H](CO)NC(=O)CNC(=O)[C@H]([C@@H](C)CC)NC(=O)[C@H](C)NC(=O)[C@H](C)NC(=O)[C@H](CC(C)C)NC(=O)[C@@H]3CSSC[C@@H](C(=O)N[C@@H](Cc4ccc(O)cc4)C(=O)N4CCC[C@H]4C(=O)N[C@@H](CCCNC(=N)N)C(N)=O)NC(=O)[C@H](CCCCN)NC(=O)[C@H](CSSC[C@H](NC(=O)[C@H](CCC(=O)O)NC(=O)[C@H](C(C)C)NC(=O)[C@H](CO)NC(=O)[C@H](C)NC(=O)[C@H](CCN)NC1=O)C(=O)N[C@@H](C)C(=O)N[C@@H](CCC(N)=O)C(=O)N[C@@H](CO)C(=O)N3)NC(=O)[C@H](CCCCN)NC(=O)CNC(=O)[C@H](CC(N)=O)NC(=O)[C@H](CCCC)NC2=O [compound 10] (H-P[Nle]E[Nle]RC[Dab]ASVECAQSCLAAIGSIFGKC[Nle]NGKCKCYPR-NH2; disulfide 6-27, 12-32, 16-34) | 0.33 |  |  |  |  |  | 
2 | CCCC[C@H](NC(=O)[C@@H]1CCCN1)C(=O)N[C@@H](CCC(=O)O)C(=O)N[C@@H](CCCC)C(=O)N[C@@H](CCCNC(=N)N)C(=O)N[C@H]1CSSC[C@@H]2NC(=O)[C@H](CCCCN)NC(=O)CNC(=O)[C@H](Cc3ccccc3)NC(=O)[C@H]([C@@H](C)CC)NC(=O)[C@H](CO)NC(=O)CNC(=O)[C@H]([C@@H](C)CC)NC(=O)[C@H](C)NC(=O)[C@H](C)NC(=O)[C@H](CC(C)C)NC(=O)[C@@H]3CSSC[C@@H](C(=O)N[C@@H](Cc4ccc(O)cc4)C(=O)N4CCC[C@H]4C(=O)N[C@@H](CCCNC(=N)N)C(N)=O)NC(=O)[C@H](CCCCN)NC(=O)[C@H](CSSC[C@H](NC(=O)[C@H](CCC(=O)O)NC(=O)[C@H](CCCNC(=N)N)NC(=O)[C@H](CO)NC(=O)[C@H](C)NC(=O)[C@H](CO)NC1=O)C(=O)N[C@@H](C)C(=O)N[C@@H](CCC(N)=O)C(=O)N[C@@H](CO)C(=O)N3)NC(=O)[C@H](CCCCN)NC(=O)CNC(=O)[C@H](CC(N)=O)NC(=O)[C@H](CCCC)NC2=O [compound 12] (H-P[Nle]E[Nle]RCSASRECAQSCLAAIGSIFGKC[Nle]NGKCKCYPR-NH2; disulfide 6-27, 12-32, 16-34) | 0.45 |  |  |  |  |  | 
3 | CCCC[C@H](NC(=O)[C@@H]1CCCN1)C(=O)N[C@@H](CCC(=O)O)C(=O)N[C@@H](CCCC)C(=O)N[C@@H](CCCNC(=N)N)C(=O)N[C@H]1CSSC[C@@H]2NC(=O)[C@H](CCCCN)NC(=O)CNC(=O)[C@H](Cc3ccccc3)NC(=O)[C@H]([C@@H](C)CC)NC(=O)[C@H](CO)NC(=O)CNC(=O)[C@H]([C@@H](C)CC)NC(=O)[C@H](C)NC(=O)[C@H](C)NC(=O)[C@H](CC(C)C)NC(=O)[C@@H]3CSSC[C@@H](C(=O)N[C@@H](Cc4ccc(O)cc4)C(=O)N4CCC[C@H]4C(=O)N[C@@H](CCCNC(=N)N)C(=O)O)NC(=O)[C@H](CCCCN)NC(=O)[C@H](CSSC[C@H](NC(=O)[C@H](CCC(=O)O)NC(=O)[C@H](C(C)C)NC(=O)[C@H](CO)NC(=O)[C@H](C)NC(=O)[C@H](CO)NC1=O)C(=O)N[C@@H](C)C(=O)N[C@@H](CCC(N)=O)C(=O)N[C@@H](CCCCN)C(=O)N3)NC(=O)[C@H](CCCCN)NC(=O)[C@H](CCCCN)NC(=O)[C@H](CC(N)=O)NC(=O)[C@H](CCCC)NC2=O [compound 97] (H-P[Nle]E[Nle]RCSASVECAQKCLAAIGSIFGKC[Nle]NKKCKCYPR-OH; disulfide 6-27, 12-32, 16-34) |  | >5500 | 5500 | >5500 | 1.2 | 48.9% | 
4 | CCCC[C@@H]1NC(=O)[C@@H]2CSSC[C@H](NC(=O)[C@H](CCCNC(=N)N)NC(=O)[C@H](CCCC)NC(=O)[C@H](CCC(=O)O)NC(=O)[C@@H](NC(=O)[C@@H]3CCCN3)[C@@H](C)CC)C(=O)N[C@@H](CO)C(=O)N[C@@H](C)C(=O)N[C@@H](CO)C(=O)N[C@@H](C(C)C)C(=O)N[C@@H](CCC(=O)O)C(=O)N[C@H]3CSSC[C@H](NC(=O)[C@H](CCCCN)NC(=O)[C@H](CCCCN)NC(=O)[C@H](CC(N)=O)NC1=O)C(=O)N[C@@H](CCCCN)C(=O)N[C@H](C(=O)N[C@@H](Cc1ccc(O)cc1)C(=O)N1CCC[C@H]1C(=O)N[C@@H](CCCNC(=N)N)C(=O)O)CSSC[C@H](NC(=O)[C@H](CCCCN)NC(=O)[C@H](CCC(N)=O)NC(=O)[C@H](CCCCN)NC3=O)C(=O)N[C@@H](CC(C)C)C(=O)N[C@@H](C)C(=O)N[C@@H](C)C(=O)N[C@@H]([C@@H](C)CC)C(=O)NCC(=O)N[C@@H](CO)C(=O)N[C@@H]([C@@H](C)CC)C(=O)N[C@@H](Cc1ccccc1)C(=O)NCC(=O)N[C@@H](CCCCN)C(=O)N2 [compound 95] (H-PIE[Nle]RCSASVECKQKCLAAIGSIFGKC[Nle]NKKCKCYPR-OH; disulfide 6-27, 12-32, 16-34) |  |  |  |  |  |  | Selectivity ratio Kv1.1/Kv1.3 [2]: >8600; Selectivity ratio Kv1.2/Kv1.3 [3]: 5630; Selectivity ratio Kv1.6/Kv1.3 [4]: >8600; IC50 [5]: 0.61 nM; % inhibition of ear thickness (AUC of Δ ear thickness 0-48 hours) ([6]; rat, in vivo): 44.5%
5 | CCCC[C@@H]1NC(=O)[C@@H]2CSSC[C@H](NC(=O)[C@H](CCCNC(=N)N)NC(=O)[C@H](CCCC)NC(=O)[C@H](CC(=O)O)NC(=O)[C@@H](NC(=O)[C@@H](N)CC(N)=O)[C@@H](C)CC)C(=O)N[C@@H](CO)C(=O)N[C@@H](C)C(=O)N[C@@H](CO)C(=O)N[C@@H](C(C)C)C(=O)N[C@@H](CCC(=O)O)C(=O)N[C@H]3CSSC[C@H](NC(=O)[C@H](CCCCN)NC(=O)[C@H](CCCCN)NC(=O)[C@H](CC(N)=O)NC1=O)C(=O)N[C@@H](CCCCN)C(=O)N[C@H](C(=O)N[C@@H](Cc1ccc(O)cc1)C(=O)N1CCC[C@H]1C(=O)N[C@@H](CCCNC(=N)N)C(=O)O)CSSC[C@H](NC(=O)[C@H](CCCCN)NC(=O)[C@H](CCC(N)=O)NC(=O)[C@H](CCCCN)NC3=O)C(=O)N[C@@H](CC(C)C)C(=O)N[C@@H](CCCCN)C(=O)N[C@@H](C)C(=O)N[C@@H]([C@@H](C)CC)C(=O)NCC(=O)N[C@@H](CO)C(=O)N[C@@H]([C@@H](C)CC)C(=O)N[C@@H](Cc1ccccc1)C(=O)NCC(=O)N[C@@H](CCCCN)C(=O)N2 [compound 91] (H-NID[Nle]RCSASVECKQKCLKAIGSIFGKC[Nle]NKKCKCYPR-OH; disulfide 6-27, 12-32, 16-34) |  | >11300 | 7756 | >11300 | 1.2 | 39.6% | 
6 | CC[C@H](C)[C@@H]1NC(=O)[C@H](C)NC(=O)[C@H](C)NC(=O)[C@H](CC(C)C)NC(=O)[C@@H]2CSSC[C@@H](C(=O)N[C@@H](Cc3ccc(O)cc3)C(=O)N3CCC[C@H]3C(=O)N[C@@H](CCCNC(=N)N)C(N)=O)NC(=O)[C@H](CCCCN)NC(=O)[C@@H]3CSSC[C@H](NC(=O)[C@H](CCC(=O)O)NC(=O)[C@H](C(C)C)NC(=O)[C@H](CO)NC(=O)[C@H](C)NC(=O)[C@H](CO)NC(=O)[C@@H](NC(=O)[C@H](CCCNC(=N)N)NC(=O)[C@H](CCSC)NC(=O)[C@H](CC(=O)O)NC(=O)[C@H](CCSC)NC(=O)[C@@H](N)CC(N)=O)CSSC[C@H](NC(=O)[C@H](CCCCN)NC(=O)CNC(=O)[C@H](Cc4ccccc4)NC(=O)[C@H]([C@@H](C)CC)NC(=O)[C@H](CO)NC(=O)CNC1=O)C(=O)N[C@@H](CCSC)C(=O)N[C@@H](CC(N)=O)C(=O)N[C@@H](CCCCN)C(=O)N[C@@H](CCCCN)C(=O)N3)C(=O)N[C@@H](CCCCN)C(=O)N[C@@H](CCC(N)=O)C(=O)N[C@@H](CCCCN)C(=O)N2 [compound 56] (H-NMDMRCSASVECKQKCLAAIGSIFGKCMNKKCKCYPR-NH2; disulfide 6-27, 12-32, 16-34) |  | >27500 | 803 | >27500 | 0.69 | 25.1 (+/−6.3) % | 
